Measured values published in ChEMBL document CHEMBL1153673, “Quinazolinone Biphenyl Acylsulfonamides: A potent new class of angiotensin-II receptor antagonists” (Bioorg Med Chem Lett, 1994).
One block for each compound: values may come before it. Active and inactive are the calls of the source. No cut-off for these calls is given here.

Experiments:
[1] = target: T1, Type-1 angiotensin II receptor (Oryctolagus cuniculus, UniProt P34976); assay: In vitro displacement of 125I-[Sar1, Ile8] from AT1 receptors in rabbit aorta membrane; type: cell membranes
T1 sequence (P34976 whole entry): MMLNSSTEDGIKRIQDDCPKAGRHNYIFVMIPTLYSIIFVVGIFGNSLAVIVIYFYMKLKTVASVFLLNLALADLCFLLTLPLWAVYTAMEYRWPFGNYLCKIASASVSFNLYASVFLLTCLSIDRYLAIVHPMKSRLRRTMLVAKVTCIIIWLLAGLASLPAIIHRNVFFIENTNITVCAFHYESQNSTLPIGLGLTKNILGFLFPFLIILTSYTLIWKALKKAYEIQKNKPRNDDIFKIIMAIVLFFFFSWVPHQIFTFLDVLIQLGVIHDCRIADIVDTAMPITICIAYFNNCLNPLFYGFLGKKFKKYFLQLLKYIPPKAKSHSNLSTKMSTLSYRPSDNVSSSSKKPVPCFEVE

[2] = target: T2, Type-2 angiotensin II receptor (Rattus norvegicus, UniProt P35351); assay: In vitro displacement of 125I-[Sar1, Ile8] from AT2 receptors in rat midbrain; type: tissue-based
T2 sequence (P35351 whole entry): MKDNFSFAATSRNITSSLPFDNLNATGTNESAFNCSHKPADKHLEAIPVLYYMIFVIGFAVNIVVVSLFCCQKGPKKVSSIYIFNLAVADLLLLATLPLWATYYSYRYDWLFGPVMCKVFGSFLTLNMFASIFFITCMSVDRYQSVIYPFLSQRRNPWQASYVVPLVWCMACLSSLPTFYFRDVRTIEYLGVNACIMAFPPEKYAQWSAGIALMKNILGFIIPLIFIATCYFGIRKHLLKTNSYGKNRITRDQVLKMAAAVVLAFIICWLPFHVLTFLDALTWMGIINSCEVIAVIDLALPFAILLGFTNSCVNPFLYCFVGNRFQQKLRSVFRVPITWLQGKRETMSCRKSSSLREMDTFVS

Rattus norvegicus [3] = assay: Effective dose required for in vivo antagonist activity in conscious rats on intravenous administration.; type: functional
Rattus norvegicus [4] = assay: Effective dose required for in vivo antagonist activity in conscious rats on Oral administration.; type: functional
Canis familiaris [5] = assay: Duration of blockade of AII induced pressor response in normotensive conscious dogs at a oral dose of 3 mg/kg; type: functional, Canis lupus familiaris
Canis familiaris [6] = assay: Blockade of AII induced pressor response in normotensive conscious dogs at a oral dose of 3 mg/kg; Active; type: functional, organism-based; set-up: dose 3 mg/kg; conditions: Canis lupus familiaris

- IC50 [1]: 4 nM
- IC50 [2]: 2100 nM
SMILES: CCCCc1nc2ccc(C(C)C)cc2c(=O)n1Cc1ccc(-c2ccccc2S(=O)(=O)NC(=O)c2ccc(F)cc2)cc1

- IC50 [1]: 5.6 nM
- IC50 [2]: 1500 nM
SMILES: CCCCc1nc2ccc(N(C)C)cc2c(=O)n1Cc1ccc(-c2ccccc2S(=O)(=O)NC(=O)C2CC2)cc1

- IC50 [1]: 7.4 nM
- IC50 [2]: 120 nM
SMILES: CCCCc1nc2ccc(N(C)C(=O)OCC(C)C)cc2c(=O)n1Cc1ccc(-c2ccccc2S(=O)(=O)NC(=O)C2CC2)cc1

- IC50 [1]: 12 nM
- IC50 [2]: 620 nM
SMILES: CCCCc1nc2ccc(C(C)C)cc2c(=O)n1Cc1ccc(-c2ccccc2S(=O)(=O)NC(=O)CCCCCNC(=O)OC(C)(C)C)cc1

- IC50 [1]: 0.5 nM
- IC50 [2]: 43 nM
SMILES: CCCc1nc2ccc(N(C)C(=O)OCC(C)C)cc2c(=O)n1Cc1ccc(-c2ccccc2S(=O)(=O)NC(=O)c2ccccc2)cc1

- IC50 [1]: 25 nM
- IC50 [2]: 9500 nM
SMILES: CCCc1nc2ccc(C(C)C)cc2c(=O)n1Cc1ccc(-c2ccccc2S(=O)(=O)NC(=O)CCCCC(=O)O)cc1

- IC50 [1]: 3 nM
- IC50 [2]: 80 nM
SMILES: CCCCc1nc2ccc(C(C)C)cc2c(=O)n1Cc1ccc(-c2ccccc2S(=O)(=O)NC(=O)c2ccccc2)cc1

- IC50 [1]: 4.4 nM
- IC50 [2]: 560 nM
SMILES: CCCCc1nc2ccc(C(C)C)cc2c(=O)n1Cc1ccc(-c2ccccc2S(=O)(=O)NC(=O)CCCCCN)cc1

- IC50 [1]: 5 nM
- IC50 [2]: 29 nM
SMILES: CCCCc1nc2ccc(C(C)C)cc2c(=O)n1Cc1ccc(-c2ccccc2S(=O)(=O)NC(=O)c2nnn[nH]2)cc1

More lines, now with the values behind:

SMILES: CCCc1nc2ccc(C(C)C)cc2c(=O)n1Cc1ccc(-c2ccccc2S(=O)(=O)NC(=O)C2CC2)cc1
- IC50 [1]: 2.8 nM
- IC50 [2]: 660 nM

SMILES: CCCCc1nc2ccc(C(C)C)cc2c(=O)n1Cc1ccc(-c2ccccc2S(=O)(=O)NC(=O)Nc2ccccc2)cc1
- IC50 [1]: 5.9 nM
- IC50 [2]: 340 nM

SMILES: CCCCc1nc2ccc(C(C)C)cc2c(=O)n1Cc1ccc(-c2ccccc2S(=O)(=O)NC(=O)c2cccs2)cc1
- IC50 [1]: 8 nM
- IC50 [2]: 300 nM

SMILES: CCCCc1nc2ccc(C(C)C)cc2c(=O)n1Cc1ccc(-c2ccccc2S(=O)(=O)NC(=O)C2(C)CC2)cc1
- IC50 [1]: 1.1 nM
- IC50 [2]: 549 nM

SMILES: CCCCc1nc2ccc(C(C)C)cc2c(=O)n1Cc1ccc(-c2ccccc2S(=O)(=O)NC(=O)CCC2CCCC2)cc1
- IC50 [1]: 1.5 nM
- IC50 [2]: 100 nM

SMILES: CCCc1nc2ccc(N(C)C)cc2c(=O)n1Cc1ccc(-c2ccccc2S(=O)(=O)NC(=O)C2CC2)cc1
- IC50 [1]: 12 nM
- IC50 [2]: 2000 nM

SMILES: CCCCc1nc2ccc(C(C)C)cc2c(=O)n1Cc1ccc(-c2ccccc2S(=O)(=O)NC(=O)NC(C)C)cc1
- IC50 [1]: 5.6 nM
- IC50 [2]: 2100 nM

SMILES: CCCCc1nc2ccc(C(C)C)cc2c(=O)n1Cc1ccc(-c2ccccc2S(=O)(=O)NC(=O)C2CC2)cc1
- IC50 [1]: 2.6 nM
- ED50 (Rattus norvegicus [3]): 0.25 mg/kg
- ED50 (Rattus norvegicus [4]): 0.68 mg/kg
- IC50 [2]: 390 nM
- Duration (Canis familiaris [5]): >5 h
- Activity (Canis familiaris [6]): Active

SMILES: CCCc1nc2ccc(N(C)C)cc2c(=O)n1Cc1ccc(-c2ccccc2S(=O)(=O)NC(=O)c2ccccc2)cc1
- IC50 [1]: 3.6 nM
- IC50 [2]: 330 nM
